The values that follow come from patent US12509447B2, “Small molecule compound” (Technoderma Medicines Pte Ltd, priority 2019, dated 2025).

What all share (assay type): biochemical
The target of one assay is Tyk2 (Homo sapiens, UniProt P29597). The assay can be described thus: Inhibition of JAK kinase activity, EZ Reader microfluidic phosphorylation of peptide substrate: Tyk2. Particulars: Tyk2 kinase 1 nM; highest final concentration 10 μM, 1:3 serial dilution, 8 points, duplicates. An excerpt:
(§1) EZ Reader available from PerkinElmer can be used for detecting the phosphorylation of polypeptide substrates catalyzed by kinases. This device is based on microfluidic separation technology, and can directly detect fluorescence labeled substrates and products. The separation step is achieved in a microfluidic chip by controlling the pressure and electric field intensity. In a kinase experiment, the product conversion rate is generally controlled at 20-30%. This biological assay method is used for identifying the inhibitory effect of the compounds on JAK.
(§2) The compound powder was dissolved in DMSO, sealed and stored in a refrigerator at −20° C. The in-house compound Ref1 was used as a positive control for testing of JAK1, JAK2 and Tyk2, and Ref2 was used as a positive control for testing of JAK3.
(§3) • S2.1. 1M HEPES buffer: 0.5M HEPES free acid and 0.5M HEPES sodium salt are weighed, added into ultrapure water for dissolution, brought to a desired volume, filtered and stored in a refrigerator at 4° C. • S2.2. 40 mM ATP solution: dissolved in a 50 mM HEPES buffer solution, prepared into 40 mM, aliquoted, and cryopreserved in a refrigerator at −20° C. • S2.3. 0.5% Tween 20: 100% Tween 20 was diluted with ultrapure water, and stored in a refrigerator at 4° C. • S2.4. 35% bovine serum albumin: a 35% bovine serum albumin solution is prepared in ultrapure water, aliquoted, and stored in a refrigerator at −20° C. • S2.5. 1M dithiothreitol solution: dithiothreitol is formulated into a 1M solution with ultrapure water, aliquoted, and stored in a refrigerator at −20° C. • S2.6. 0.5 mM Jaktide Peptide substrate solution: it is dissolved in 50 mM HEPES to 0.5 mM, aliquoted, and stored in a refrigerator at −20° C. • S2.7. 0.5 mM IRStide Peptide substrate solution: it is dissolved in 50 mM HEPES to 0.5 mM, aliquoted, and stored in a refrigerator at −20° C. • S2.8. Assay Buffer: 20 mM HEPES buffer, pH 7.4, 10 mM magnesium chloride, 0.01% bovine serum albumin BSA, 0.0005% Tween-20, and a 1 mM dithiothreitol solution. • S2.9. Stop Buffer: 180 mM HEPES buffer, 20 mM ethylenediamine tetraacetic acid (EDTA), and 0.2% Coating Reagent 3. • S2.10. Separation Buffer: 100 mM HEPES buffer, 10 mM EDTA, 0.0005% Tween 20, 0.1% Coating Reagent 3, and 1% dimethyl sulfoxide. 3. Experimental Procedures • S3.1. Preparation of compound plate
(§4) The compound is dissolved in dimethyl sulfoxide to 10 mM, a certain volume is taken and diluted to 0.6 mM, 10 μl of the diluted 0.6 mM solution is taken and added into a 384 microplate or 1:3 serial dilution, with a total of 8 concentration points. • S3.2. Compound layout
(§5) • positive control (HPE1): Ref1, final concentration: 10 μM • positive control (HPE1): Ref2, final concentration: 10 μM • negative control (ZPE): DMSO, with a final concentration of 1.6% • Compound: the highest final concentration at 10 μM, 1:3 serial dilution, with 8 concentration points and in duplicates. 4. Experimental operation steps • S4.1. the experimental plate was added with 250 nl of the compound per well with ECHO, and centrifuged at 1,000 rpm for 1 minute; • S4.2. the precipitate was added with 5 μl of the experimental buffer, and shaken for several seconds to fully dissolve the compound; • S4.3. the solution was added with 5 μl of a 3× substrate solution, as well as 5 μl of a 3× kinase solution, and centrifuged at 800 rpm for 1 minute; • S4.4. The final concentrations of JAK1, JAK2, JAK3 and Tyk2 kinases in the reaction system are 20, 1, 1 and 1 nM, respectively. • S4.5. the reaction system is incubated at room temperature, wherein the incubation time of each kinase is different, and there are differences in incubation time of different batches of kinases. • S4.6. When the reaction reaches 20%-30%, the reaction system is added with 15 μl of the stop buffer to terminate the reaction, and centrifuged at 1,000 rpm for 2 minutes. • S4.7. The precipitate was placed onto a EZ Reader for plate reading. • S4.8. […]

The next assay addresses JAK1 (Homo sapiens, UniProt P23458). The assay can be described thus: Inhibition of JAK kinase activity, EZ Reader microfluidic phosphorylation of peptide substrate: JAK1. Particulars: JAK1 kinase 20 nM; highest final concentration 10 μM, 1:3 serial dilution, 8 points, duplicates.
Source text: as §1, §2, §3, §4, §5

For a further assay, the target named is JAK2 (Homo sapiens, UniProt O60674). The assay can be described thus: Inhibition of JAK kinase activity, EZ Reader microfluidic phosphorylation of peptide substrate: JAK2. Particulars: JAK2 kinase 1 nM; highest final concentration 10 μM, 1:3 serial dilution, 8 points, duplicates.
Chain of JAK2 (O60674 whole entry): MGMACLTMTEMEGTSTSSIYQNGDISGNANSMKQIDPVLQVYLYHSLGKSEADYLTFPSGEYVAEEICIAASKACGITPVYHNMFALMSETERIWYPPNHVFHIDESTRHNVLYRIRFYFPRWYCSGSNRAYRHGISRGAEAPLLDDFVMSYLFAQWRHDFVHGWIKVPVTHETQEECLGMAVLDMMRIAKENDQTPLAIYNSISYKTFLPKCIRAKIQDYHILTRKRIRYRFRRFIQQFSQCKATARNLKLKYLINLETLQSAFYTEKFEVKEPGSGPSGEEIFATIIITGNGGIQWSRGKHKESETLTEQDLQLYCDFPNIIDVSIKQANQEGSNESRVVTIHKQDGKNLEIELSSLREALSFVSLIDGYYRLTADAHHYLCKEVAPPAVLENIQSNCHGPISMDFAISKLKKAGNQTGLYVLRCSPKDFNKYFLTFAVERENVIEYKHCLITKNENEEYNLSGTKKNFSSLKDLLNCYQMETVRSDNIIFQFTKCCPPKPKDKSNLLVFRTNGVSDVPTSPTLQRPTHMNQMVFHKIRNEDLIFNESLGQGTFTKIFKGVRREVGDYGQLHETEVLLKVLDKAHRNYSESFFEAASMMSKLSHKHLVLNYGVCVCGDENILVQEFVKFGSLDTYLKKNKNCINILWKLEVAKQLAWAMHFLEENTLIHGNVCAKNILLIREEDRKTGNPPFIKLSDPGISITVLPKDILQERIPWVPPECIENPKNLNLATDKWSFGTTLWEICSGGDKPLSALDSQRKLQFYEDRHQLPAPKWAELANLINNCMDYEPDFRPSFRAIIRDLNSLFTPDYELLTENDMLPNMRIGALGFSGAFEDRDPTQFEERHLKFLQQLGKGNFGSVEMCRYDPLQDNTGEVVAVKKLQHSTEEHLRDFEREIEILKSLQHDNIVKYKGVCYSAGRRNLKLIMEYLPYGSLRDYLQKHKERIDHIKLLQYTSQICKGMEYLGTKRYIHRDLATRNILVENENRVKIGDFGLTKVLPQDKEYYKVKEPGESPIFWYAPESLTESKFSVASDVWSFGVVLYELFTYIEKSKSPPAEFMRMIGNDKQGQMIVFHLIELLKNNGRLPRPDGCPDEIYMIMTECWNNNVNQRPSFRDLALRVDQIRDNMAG
Source text: as §1, §2, §3, §4, §5

The next assay has as its target T1, JAK3 (Homo sapiens, UniProt P52333).
T1 sequence (P52333 1-1124): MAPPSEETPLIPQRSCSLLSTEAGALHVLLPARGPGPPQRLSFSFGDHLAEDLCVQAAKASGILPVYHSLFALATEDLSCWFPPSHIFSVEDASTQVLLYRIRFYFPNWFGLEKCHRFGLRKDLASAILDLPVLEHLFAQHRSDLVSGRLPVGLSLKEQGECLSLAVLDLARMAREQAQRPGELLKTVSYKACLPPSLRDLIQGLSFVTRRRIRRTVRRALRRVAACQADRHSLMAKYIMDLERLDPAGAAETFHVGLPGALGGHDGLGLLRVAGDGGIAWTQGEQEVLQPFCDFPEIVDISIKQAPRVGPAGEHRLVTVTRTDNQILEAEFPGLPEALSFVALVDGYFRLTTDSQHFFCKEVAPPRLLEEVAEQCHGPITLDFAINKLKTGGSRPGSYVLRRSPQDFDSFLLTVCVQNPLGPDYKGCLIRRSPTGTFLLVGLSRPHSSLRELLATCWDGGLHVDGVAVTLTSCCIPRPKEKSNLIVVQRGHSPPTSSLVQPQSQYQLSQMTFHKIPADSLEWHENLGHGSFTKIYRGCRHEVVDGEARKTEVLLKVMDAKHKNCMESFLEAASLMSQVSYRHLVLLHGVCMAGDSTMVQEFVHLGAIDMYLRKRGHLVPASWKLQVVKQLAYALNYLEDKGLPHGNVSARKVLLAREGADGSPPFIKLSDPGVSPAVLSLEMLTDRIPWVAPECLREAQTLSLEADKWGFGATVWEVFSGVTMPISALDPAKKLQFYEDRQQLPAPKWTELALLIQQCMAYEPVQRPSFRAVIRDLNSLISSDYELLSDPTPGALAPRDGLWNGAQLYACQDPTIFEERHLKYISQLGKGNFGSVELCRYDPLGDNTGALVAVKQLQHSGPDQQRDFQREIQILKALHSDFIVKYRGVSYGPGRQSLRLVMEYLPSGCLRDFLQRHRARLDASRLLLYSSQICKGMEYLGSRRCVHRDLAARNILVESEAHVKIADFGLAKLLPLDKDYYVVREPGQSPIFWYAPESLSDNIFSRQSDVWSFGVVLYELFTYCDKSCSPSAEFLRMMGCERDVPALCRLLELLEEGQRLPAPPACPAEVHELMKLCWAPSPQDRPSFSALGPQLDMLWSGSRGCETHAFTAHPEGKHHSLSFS
As to the kind of experiment: Inhibition of JAK kinase activity, EZ Reader microfluidic phosphorylation of peptide substrate: JAK3. Particulars: JAK3 kinase 1 nM; highest final concentration 10 μM, 1:3 serial dilution, 8 points, duplicates.
Source text: as §1, §2, §3, §4, §5

The structures appear in SMILES notation.

Broadly, the IC50 is the concentration that gives 50% inhibition. A lower IC50 goes with greater potency in that assay.

Chain of Tyk2 (P29597 whole entry): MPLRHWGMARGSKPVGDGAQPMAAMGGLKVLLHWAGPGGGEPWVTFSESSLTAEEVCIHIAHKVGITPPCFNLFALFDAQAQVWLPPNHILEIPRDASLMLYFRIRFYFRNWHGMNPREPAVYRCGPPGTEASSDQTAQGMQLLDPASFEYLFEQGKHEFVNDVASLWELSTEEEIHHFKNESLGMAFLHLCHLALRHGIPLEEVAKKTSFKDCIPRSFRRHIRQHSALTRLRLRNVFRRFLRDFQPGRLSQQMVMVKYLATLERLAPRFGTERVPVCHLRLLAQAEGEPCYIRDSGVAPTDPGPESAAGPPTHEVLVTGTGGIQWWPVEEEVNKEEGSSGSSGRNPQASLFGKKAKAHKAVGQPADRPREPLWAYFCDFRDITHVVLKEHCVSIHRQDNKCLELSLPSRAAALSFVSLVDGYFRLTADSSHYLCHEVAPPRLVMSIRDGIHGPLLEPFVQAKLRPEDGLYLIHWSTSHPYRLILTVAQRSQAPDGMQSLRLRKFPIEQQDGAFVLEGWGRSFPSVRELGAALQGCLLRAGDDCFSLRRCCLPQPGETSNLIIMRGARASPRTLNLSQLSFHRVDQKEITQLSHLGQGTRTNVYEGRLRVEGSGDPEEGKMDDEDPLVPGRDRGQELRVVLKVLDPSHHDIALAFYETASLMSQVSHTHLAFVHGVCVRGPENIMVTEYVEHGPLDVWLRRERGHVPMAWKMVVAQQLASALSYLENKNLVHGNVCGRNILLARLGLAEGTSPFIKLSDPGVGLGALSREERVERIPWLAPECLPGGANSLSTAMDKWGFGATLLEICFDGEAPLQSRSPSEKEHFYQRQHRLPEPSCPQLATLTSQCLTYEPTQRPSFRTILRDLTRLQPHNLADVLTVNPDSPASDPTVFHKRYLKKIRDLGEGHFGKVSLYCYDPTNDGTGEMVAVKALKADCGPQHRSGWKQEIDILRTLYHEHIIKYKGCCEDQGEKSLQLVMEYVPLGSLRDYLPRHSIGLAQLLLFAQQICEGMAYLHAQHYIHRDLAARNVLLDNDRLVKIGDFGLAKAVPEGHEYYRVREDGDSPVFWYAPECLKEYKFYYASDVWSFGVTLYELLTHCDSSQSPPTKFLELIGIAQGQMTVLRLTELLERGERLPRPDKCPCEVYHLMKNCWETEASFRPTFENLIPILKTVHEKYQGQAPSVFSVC
Chain of JAK1 (P23458 whole entry): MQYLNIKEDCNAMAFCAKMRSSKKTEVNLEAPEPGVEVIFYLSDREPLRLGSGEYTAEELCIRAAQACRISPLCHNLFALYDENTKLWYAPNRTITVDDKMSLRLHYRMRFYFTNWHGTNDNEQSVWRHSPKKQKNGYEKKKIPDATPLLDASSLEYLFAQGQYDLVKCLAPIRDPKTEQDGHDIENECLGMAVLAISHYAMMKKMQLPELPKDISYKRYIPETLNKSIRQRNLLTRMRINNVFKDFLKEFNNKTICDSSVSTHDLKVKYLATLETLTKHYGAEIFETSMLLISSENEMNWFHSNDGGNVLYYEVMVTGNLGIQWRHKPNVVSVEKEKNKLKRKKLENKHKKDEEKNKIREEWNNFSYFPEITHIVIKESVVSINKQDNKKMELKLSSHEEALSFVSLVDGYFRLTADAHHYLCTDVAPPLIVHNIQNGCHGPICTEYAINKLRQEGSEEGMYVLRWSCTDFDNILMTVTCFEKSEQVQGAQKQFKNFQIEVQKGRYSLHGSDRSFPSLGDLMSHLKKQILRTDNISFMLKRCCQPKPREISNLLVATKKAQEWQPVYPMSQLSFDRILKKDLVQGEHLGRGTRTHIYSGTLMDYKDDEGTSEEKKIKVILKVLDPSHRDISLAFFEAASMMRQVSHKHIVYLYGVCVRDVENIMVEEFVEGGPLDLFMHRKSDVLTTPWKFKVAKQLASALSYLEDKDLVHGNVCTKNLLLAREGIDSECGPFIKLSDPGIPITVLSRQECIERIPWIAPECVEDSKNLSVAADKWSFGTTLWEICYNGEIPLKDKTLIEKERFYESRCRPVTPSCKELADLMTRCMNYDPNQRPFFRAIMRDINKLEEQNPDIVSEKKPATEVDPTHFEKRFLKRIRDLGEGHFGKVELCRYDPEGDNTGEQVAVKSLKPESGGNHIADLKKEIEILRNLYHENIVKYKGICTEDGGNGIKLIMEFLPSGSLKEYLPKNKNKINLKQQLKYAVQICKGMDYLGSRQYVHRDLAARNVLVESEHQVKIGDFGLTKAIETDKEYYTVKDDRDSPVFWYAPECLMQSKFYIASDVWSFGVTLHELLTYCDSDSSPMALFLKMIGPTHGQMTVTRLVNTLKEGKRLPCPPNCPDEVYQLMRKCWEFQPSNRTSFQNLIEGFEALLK

`Cn1cc(Nc2cc(-c3cnn(C4CN(C(=O)CC(F)(F)F)C4)c3)ccn2)cn1` [TDM-180636, 3,3,3-trifluoro-1-(3-(4-(2-((1-methyl-1H-pyrazol-4-yl)amino)pyridin-4-yl)-1H-pyrazol-1-yl)azetidin-1-yl)propan-1-one]: the IC50 against Tyk2, at JAK1, on JAK2 and at JAK3 was at least 10 µM each time.

For the compound `Cn1cc(Nc2cc(-c3cnn(C4CN(C(=O)C5CC5)C4)c3)ccn2)cn1` [TDM-180637, cyclopropyl(3-(4-(2-((1-methyl-1H-pyrazol-4-yl)amino)pyridin-4-yl)-1H-pyrazol-1-yl)azetidin-1-yl)ketone], the IC50 against Tyk2, against JAK1, at JAK2 and against JAK3 was at least 10 µM each time.

On to `Cn1cc(Nc2cc(-c3cnn(C4CN(C(=O)C5CC5(F)F)C4)c3)ccn2)cn1` (centres unmarked) [TDM-180638], for which the IC50 against Tyk2, against JAK1, at JAK2 and at JAK3 was at least 10 µM throughout.

For the compound `CCC(=O)N1CC(n2cc(-c3ccnc(Nc4cnn(C)c4)c3)cn2)C1` [TDM-180639, 1-(3-(4-(2-((1-methyl-1H-pyrazol-4-yl)amino)pyridin-4-y1)-1H-pyrazol-1-yl)azetidin-1-yl)propan-1-one], the IC50 at Tyk2, against JAK1, against JAK2 and against JAK3 was at least 10 µM each time.

As to `CCCC(=O)N1CC(n2cc(-c3ccnc(Nc4cnn(C)c4)c3)cn2)C1` [TDM-180640, 1-(3-(4-(2-((1-methyl-1H-pyrazol-4-yl)amino)pyridin-4-yl)-1H-pyrazol-1-yl)azetidin-1-yl)butan-1-one], the IC50 against Tyk2, on JAK1, against JAK2 and against JAK3 was at least 10 µM in each case.

In the case of `Cn1cc(Nc2cc(-c3cnn(C4CN(C(=O)CC#N)C4)c3)ccn2)cn1` [TDM-180641, 3-(3-(4-(2-((1-methyl-1H-pyrazol-4-yl)amino)pyridin-4-yl)-1H-pyrazol-1-yl)azetidin-1-yl)-3-oxypropionitrile], the IC50 against Tyk2, against JAK1, at JAK2 and on JAK3 was at least 10 µM in each case.

With `COC(=O)CCS(=O)(=O)N1CC(CC#N)(n2cc(-c3ccnc(Nc4cnn(C)c4)n3)cn2)C1` [TDM-180927, Ethyl methyl-3-((3-(cyanomethyl)-3-(4-(2-((1-methyl-1H-pyrazol-4-yl)amino)pyrimidin-4-yl)-1H-pyrazol-1-yl)azetidineazetidin-1-yl)sulfonyl)propionate], the half-maximal inhibitory concentration (IC50) at Tyk2 and against JAK1 was 0.1 to 1 µM each time.

For `Cn1cc(Nc2nccc(-c3cnn(C4(CC#N)CN(S(=O)(=O)CC(F)(F)F)C4)c3)n2)cn1` [TDM-180928, 2-(3-(4-(2-((1-methyl-1H-pyrazol-4-yl)amino)pyrimidin-4-yl)-1H-pyrazol-1-yl)-1-((2,2,2-trifluoroethyl)sulfonyl)azetidin-3-yl)acetonitrile], the figures for the IC50 on Tyk2 and against JAK1 were below 0.1 µM and 0.1 to 1 µM, respectively.

Consider `COC(=O)CS(=O)(=O)N1CC(CC#N)(n2cc(-c3ccnc(Nc4cnn(C)c4)n3)cn2)C1` [TDM-180930], for which the half-maximal inhibitory concentration (IC50) on Tyk2 and on JAK1 was 0.1 to 1 µM in each case.

In the case of `Cn1cc(Nc2nccc(-c3cnn(C4(CC#N)CN(S(=O)(=O)CC5CC5)C4)c3)n2)cn1` [TDM-180931, 2-(1-((cyclopropylmethyl)sulfonyl)-3-(4-(2-((1-methyl-1H-pyrazol-4-yl)amino)pyrimidin-4-yl)-1H-pyrazol-1-yl)azetidin-3-yl)acetonitrile], the IC50 against Tyk2 and against JAK1 was 0.1 to 1 µM throughout.

With `CC(C)S(=O)(=O)N1CC(CC#N)(n2cc(-c3ccnc(Nc4cnn(C)c4)n3)cn2)C1` [TDM-180932, 2-(1-(isopropylsulfonyl)-3-(4-(2-((1-methyl-1H-pyrazol-4-yl)amino)pyrimidin-4-yl)-1H-pyrazol-1-yl)azetidinpyridin-3-yl)acetonitrile], the IC50 on Tyk2 and against JAK1 was 0.1 to 1 µM throughout.

For `Cn1cc(Nc2nccc(-c3ccn(C4(CC#N)CN(C(=O)[C@@H]5CC5(F)F)C4)c3)n2)cn1` [TDM-180937, (S)-2-(1-(2,2-difluorocyclopropane-1-carbonyl)-3-(3-(2-((1-methyl-1H-pyrazol-4-yl)amino)pyrimidin-4-yl)-1H-pyrrol-1-yl)azetidin-3-yl)acetonitrile], the IC50 at Tyk2 and against JAK1 was below 0.1 µM in each case.

With `Cn1cc(Nc2nccc(-c3ccn(C4(CC#N)CN(C(=O)[C@H]5CC5(F)F)C4)c3)n2)cn1` [TDM-180938, (R)-2-(1-(2,2-difluorocyclopropane-1-carbonyl)-3-(3-(2-((1-methyl-1H-pyrazol-4-yl)amino)pyrimidin-4-yl)-1H-pyrrol-1-yl)azetidin-3-yl)acetonitrile], the concentration for half-maximal inhibition (IC50) against Tyk2 and on JAK1 was 0.1 to 1 µM each time.
